Tested on: Mitochondria-located protein genes
Test: DNA chip mRNA expression in yeast, mitochondria-located protein genes (Table 2)
Assay type: cell-based, Saccharomyces cerevisiae S288C
Conditions: cells incubated two hours with the chemical substance
Outline: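 Expression change after 2 h toxicant exposure (growth-inhibiting, sub-lethal) of log-phase S. cerevisiae S288C at 25° C. Oligo-dT-purified mRNA was labeled with Cy3-dUTP or Cy5-dUTP and hybridized >12 h at 65° C. to a genome-wide chip; ratio of scanned fluorescence to control.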

O=[N+]([O-])c1cc[n+]([O-])c2ccccc12 [(5), 4-nitroquinolin-N-oxide]
The level of expressed mRNA in the presence of chemical substance/The level of expressed mRNA in the absence of chemical substance (yeast gene YJR121W): 0.8 | The level of expressed mRNA in the presence of chemical substance/The level of expressed mRNA in the absence of chemical substance (yeast gene YKL003C): 1.0 | The level of expressed mRNA in the presence of chemical substance/The level of expressed mRNA in the absence of chemical substance (yeast gene YKL016C): 1.5 | The level of expressed mRNA in the presence of chemical substance/The level of expressed mRNA in the absence of chemical substance (yeast gene YKL141W): 1.5 | The level of expressed mRNA in the presence of chemical substance/The level of expressed mRNA in the absence of chemical substance (yeast gene YKL142W): 0.7 | The level of expressed mRNA in the presence of chemical substance/The level of expressed mRNA in the absence of chemical substance (yeast gene YKL148C): 0.8 | The level of expressed mRNA in the presence of chemical substance/The level of expressed mRNA in the absence of chemical substance (yeast gene YKL170W): 1.3 | The level of expressed mRNA in the presence of chemical substance/The level of expressed mRNA in the absence of chemical substance (yeast gene YKL194C): 1.8 | The level of expressed mRNA in the presence of chemical substance/The level of expressed mRNA in the absence of chemical substance (yeast gene YKR066C): 1.0 | The level of expressed mRNA in the presence of chemical substance/The level of expressed mRNA in the absence of chemical substance (yeast gene YLL041C): 1.6 | The level of expressed mRNA in the presence of chemical substance/The level of expressed mRNA in the absence of chemical substance (yeast gene YLR038C): 1.8 | The level of expressed mRNA in the presence of chemical substance/The level of expressed mRNA in the absence of chemical substance (yeast gene YLR259C): 1.1 | The level of expressed mRNA in the presence of chemical substance/The level of expressed mRNA in the absence of chemical substance (yeast gene YLR295C): 2.2 | The level of expressed mRNA in the presence of chemical substance/The level of expressed mRNA in the absence of chemical substance (yeast gene YLR304C): 0.6 | The level of expressed mRNA in the presence of chemical substance/The level of expressed mRNA in the absence of chemical substance (yeast gene YLR348C): 0.9 | The level of expressed mRNA in the presence of chemical substance/The level of expressed mRNA in the absence of chemical substance (yeast gene YLR395C): 0.7 | The level of expressed mRNA in the presence of chemical substance/The level of expressed mRNA in the absence of chemical substance (yeast gene YML054C): 1.3 | The level of expressed mRNA in the presence of chemical substance/The level of expressed mRNA in the absence of chemical substance (yeast gene YML120C): 0.6 | The level of expressed mRNA in the presence of chemical substance/The level of expressed mRNA in the absence of chemical substance (yeast gene YML129C): 1.7 | The level of expressed mRNA in the presence of chemical substance/The level of expressed mRNA in the absence of chemical substance (yeast gene YMR023C): 1.7 | The level of expressed mRNA in the presence of chemical substance/The level of expressed mRNA in the absence of chemical substance (yeast gene YMR035W): 0.8 | The level of expressed mRNA in the presence of chemical substance/The level of expressed mRNA in the absence of chemical substance (yeast gene YMR083W): 1.5 | The level of expressed mRNA in the presence of chemical substance/The level of expressed mRNA in the absence of chemical substance (yeast gene YMR089C): 0.8 | The level of expressed mRNA in the presence of chemical substance/The level of expressed mRNA in the absence of chemical substance (yeast gene YMR152W): 0.8 | The level of expressed mRNA in the presence of chemical substance/The level of expressed mRNA in the absence of chemical substance (yeast gene YMR193W): 2.2 | The level of expressed mRNA in the presence of chemical substance/The level of expressed mRNA in the absence of chemical substance (yeast gene YMR203W): 0.6 | The level of expressed mRNA in the presence of chemical substance/The level of expressed mRNA in the absence of chemical substance (yeast gene YMR267W): 1.0 | The level of expressed mRNA in the presence of chemical substance/The level of expressed mRNA in the absence of chemical substance (yeast gene YNL055C): 0.9 | The level of expressed mRNA in the presence of chemical substance/The level of expressed mRNA in the absence of chemical substance (yeast gene YNL071W): 0.6 | The level of expressed mRNA in the presence of chemical substance/The level of expressed mRNA in the absence of chemical substance (yeast gene YNL073W): 0.6 | The level of expressed mRNA in the presence of chemical substance/The level of expressed mRNA in the absence of chemical substance (yeast gene YNL104C): 0.8 | The level of expressed mRNA in the presence of chemical substance/The level of expressed mRNA in the absence of chemical substance (yeast gene YNL256W): 1.0 | The level of expressed mRNA in the presence of chemical substance/The level of expressed mRNA in the absence of chemical substance (yeast gene YOL096C): 1.2 | The level of expressed mRNA in the presence of chemical substance/The level of expressed mRNA in the absence of chemical substance (yeast gene YOR020C): 1.5 | The level of expressed mRNA in the presence of chemical substance/The level of expressed mRNA in the absence of chemical substance (yeast gene YOR037W): 1.5 | The level of expressed mRNA in the presence of chemical substance/The level of expressed mRNA in the absence of chemical substance (yeast gene YOR100C): 1.0 | The level of expressed mRNA in the presence of chemical substance/The level of expressed mRNA in the absence of chemical substance (yeast gene YOR130C): 1.8 | The level of expressed mRNA in the presence of chemical substance/The level of expressed mRNA in the absence of chemical substance (yeast gene YOR142W): 1.4 | The level of expressed mRNA in the presence of chemical substance/The level of expressed mRNA in the absence of chemical substance (yeast gene YOR150W): 0.8 | The level of expressed mRNA in the presence of chemical substance/The level of expressed mRNA in the absence of chemical substance (yeast gene YOR176W): 1.0 | The level of expressed mRNA in the presence of chemical substance/The level of expressed mRNA in the absence of chemical substance (yeast gene YOR187W): 0.6 | The level of expressed mRNA in the presence of chemical substance/The level of expressed mRNA in the absence of chemical substance (yeast gene YOR316C): 1.0 | The level of expressed mRNA in the presence of chemical substance/The level of expressed mRNA in the absence of chemical substance (yeast gene YPL040C): 0.8 | The level of expressed mRNA in the presence of chemical substance/The level of expressed mRNA in the absence of chemical substance (yeast gene YPL134C): 1.4 | The level of expressed mRNA in the presence of chemical substance/The level of expressed mRNA in the absence of chemical substance (yeast gene YPL135W): 1.6 | The level of expressed mRNA in the presence of chemical substance/The level of expressed mRNA in the absence of chemical substance (yeast gene YPL215W): 0.8 | The level of expressed mRNA in the presence of chemical substance/The level of expressed mRNA in the absence of chemical substance (yeast gene YPL262W): 0.6 | The level of expressed mRNA in the presence of chemical substance/The level of expressed mRNA in the absence of chemical substance (yeast gene YPR024W): 1.3 | The level of expressed mRNA in the presence of chemical substance/The level of expressed mRNA in the absence of chemical substance (yeast gene YPR037C): 0.8 | The level of expressed mRNA in the presence of chemical substance/The level of expressed mRNA in the absence of chemical substance (yeast gene YPR047W): 0.9 | The level of expressed mRNA in the presence of chemical substance/The level of expressed mRNA in the absence of chemical substance (yeast gene YPR134W): 1.5
